Measured values: PubChem BioAssay AID248 (DTP/NCI, 2004)
Several values for one entry are separate records, joined by “and”; a condition that tells them apart may be missing. Identical values can stand only once. Toxic doses and inconclusive results are not listed. Cut-off read from the data, not from the text of the source: active = T/C of 150% or more; inactive = T/C below 125%.

Test system: L1210 leukemia ip in BDF1 mice, survival T/C
Assay: NCI In Vivo Anticancer Drug Screen. Data for tumor model L1210 Leukemia (intraperitoneal) in B6D2F1 (BDF1) mice
Conditions: endpoint: mean survival time, higher = longer survival
Method in brief: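 Antitumor effect is assessed in tumor-bearing animals. Survival in the compound arm is compared with a vehicle-dosed control arm and expressed as their quotient.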

[1] = dose: 75.0 mg/kg/injection, schedule: Q01DX001 (ip), vehicle: saline
[2] = dose: 150.0 mg/kg/injection, schedule: Q01DX001 (ip), vehicle: saline
[3] = dose: 100.0 mg/kg/injection, schedule: Q01DX001 (ip), vehicle: saline
[4] = dose: 200.0 mg/kg/injection, schedule: Q01DX001 (ip), vehicle: saline
[5] = dose: 400.0 mg/kg/injection, schedule: Q01DX001 (ip), vehicle: saline
[6] = dose: 100.0 mg/kg/injection, schedule: Q04DX003 (ip), vehicle: Klucel (hydroxypropylcellulose) (HPC)
[7] = dose: 200.0 mg/kg/injection, schedule: Q04DX003 (ip), vehicle: Klucel (hydroxypropylcellulose) (HPC)
[8] = dose: 400.0 mg/kg/injection, schedule: Q04DX003 (ip), vehicle: Klucel (hydroxypropylcellulose) (HPC)
[9] = dose: 100.0 mg/kg/injection, schedule: Q01DX009 (ip), vehicle: saline with Tween-80
[10] = dose: 200.0 mg/kg/injection, schedule: Q01DX009 (ip), vehicle: saline with Tween-80
[11] = dose: 400.0 mg/kg/injection, schedule: Q01DX009 (ip), vehicle: saline with Tween-80
[12] = dose: 50.0 mg/kg/injection, schedule: Q01DX009 (ip), vehicle: saline with Tween-80
[13] = dose: 100.0 mg/kg/injection, schedule: Q04DX003 (ip), vehicle: saline with Tween-80
[14] = dose: 200.0 mg/kg/injection, schedule: Q04DX003 (ip), vehicle: saline with Tween-80

Measured: T/C

CS\C(N)=N/N=C/C(C)=N/N=C(/N)SC
inactive: dose: 15.0 mg/kg/injection, schedule: Q01DX Z (ip), vehicle: saline 98 % of control | dose: 30.0 mg/kg/injection, schedule: Q01DX Z (ip), vehicle: saline 100 % of control | dose: 60.0 mg/kg/injection, schedule: Q01DX Z (ip), vehicle: saline 100 % of control and 105 % of control | dose: 120.0 mg/kg/injection, schedule: Q01DX Z (ip), vehicle: saline 100 % of control and 105 % of control | dose: 240.0 mg/kg/injection, schedule: Q01DX Z (ip), vehicle: saline 100 % of control | dose: 480.0 mg/kg/injection, schedule: Q01DX Z (ip), vehicle: saline 105 % of control

O=[N+]([O-])c1ccc(OCCN2CCCC2)cc1
inactive: [1] 93 % of control | [2] 98 % of control

Brc1cccc[n+]1Cc1ccc(C[n+]2ccccc2Br)cc1
inactive: dose: 2.66 mg/kg/injection, schedule: Q01DX Z (ip), vehicle: saline 98 % of control

Cc1ccc2c[n+]3cc4ccccc4cc3cc2c1
inactive: dose: 1.56 mg/kg/injection, schedule: Q04DX003 (ip), vehicle: saline 93 % of control | dose: 3.12 mg/kg/injection, schedule: Q01DX009 (ip), vehicle: saline 107 % of control | dose: 3.12 mg/kg/injection, schedule: Q04DX003 (ip), vehicle: saline 114 % of control | dose: 6.25 mg/kg/injection, schedule: Q01DX009 (ip), vehicle: saline 105 % of control | dose: 6.25 mg/kg/injection, schedule: Q04DX003 (ip), vehicle: saline 103 % of control | dose: 12.5 mg/kg/injection, schedule: Q04DX003 (ip), vehicle: saline 107 % of control

CC1(C)N=C(N)N=C(N)N1c1cc(Cl)ccc1Cl
inactive: dose: 12.0 mg/kg/injection, schedule: Q04DX003 (ip), vehicle: saline 117 % of control | dose: 12.5 mg/kg/injection, schedule: Q01DX001 (ip), vehicle: saline 98 % of control | dose: 25.0 mg/kg/injection, schedule: Q01DX001 (ip), vehicle: saline 90 % of control | dose: 25.0 mg/kg/injection, schedule: Q01DX009 (ip), vehicle: saline 101 % of control | dose: 25.0 mg/kg/injection, schedule: Q04DX003 (ip), vehicle: saline 100 % of control | dose: 50.0 mg/kg/injection, schedule: Q01DX001 (ip), vehicle: saline 98 % of control | dose: 50.0 mg/kg/injection, schedule: Q01DX009 (ip), vehicle: saline 97 % of control | dose: 50.0 mg/kg/injection, schedule: Q04DX003 (ip), vehicle: saline 103 % of control

C(=C/c1ccnc(/C=C/c2ccccc2)c1)/c1ccccc1
inactive: dose: 25.0 mg/kg/injection, schedule: Q01DX009 (ip), vehicle: acetone 97 % of control and 99 % of control | dose: 50.0 mg/kg/injection, schedule: Q01DX009 (ip), vehicle: acetone 87 % of control | [3] 91 % of control | dose: 100.0 mg/kg/injection, schedule: Q01DX009 (ip), vehicle: acetone 89 % of control and 92 % of control | dose: 100.0 mg/kg/injection, schedule: Q04DX003 (ip), vehicle: acetone 94 % of control | [4] 94 % of control | dose: 200.0 mg/kg/injection, schedule: Q04DX003 (ip), vehicle: acetone 86 % of control | [5] 94 % of control

O=C(O)CNC(=O)NCO
inactive: dose: 100.0 mg/kg/injection, schedule: Q01DX001 (ip), vehicle: acetone 100 % of control | dose: 200.0 mg/kg/injection, schedule: Q01DX001 (ip), vehicle: acetone 100 % of control | dose: 400.0 mg/kg/injection, schedule: Q01DX001 (ip), vehicle: acetone 103 % of control

S=C(N/N=C/C=C/c1ccccc1)NC1CC2CC1C1C=CCC21 (centres undefined)
inactive: dose: 100.0 mg/kg/injection, schedule: Q01DX009 (ip), vehicle: Klucel (hydroxypropylcellulose) (HPC) 94 % of control | dose: 200.0 mg/kg/injection, schedule: Q01DX009 (ip), vehicle: Klucel (hydroxypropylcellulose) (HPC) 117 % of control | dose: 400.0 mg/kg/injection, schedule: Q01DX009 (ip), vehicle: Klucel (hydroxypropylcellulose) (HPC) 88 % of control

COc1ccccc1C(O)(c1ccccc1)c1ccccc1OC
inactive: [6] 92 % of control | [7] 98 % of control | [8] 97 % of control

CC1CC[N-]CC1.CC1CC[N-]CC1.CC1CC[N-]CC1.[Cl][Cr]([Cl])[Cl]
inactive: dose: 100.0 mg/kg/injection, schedule: Q04DX003 (ip), vehicle: other 98 % of control | dose: 200.0 mg/kg/injection, schedule: Q04DX003 (ip), vehicle: other 95 % of control | dose: 400.0 mg/kg/injection, schedule: Q04DX003 (ip), vehicle: other 97 % of control

Brc1ccc(N(Cc2ccccc2)Cc2ccccc2)cc1
inactive: [9] 100 % of control | [10] 86 % of control | [11] 89 % of control

CC1CC(C)(C)OCO1 (centres undefined)
inactive: [6] 100 % of control | [7] 93 % of control | [8] 86 % of control

O=C(Nc1cccc(Cl)c1)Nc1ccccc1Cl
inactive: [9] 100 % of control | [10] 97 % of control | [11] 96 % of control

CCOC(=O)c1ccc(N=NN(C)C2CCCCC2)cc1
inactive: dose: 100.0 mg/kg/injection, schedule: Q01DX001 (sc), vehicle: olive oil, sesame oil, peanut oil 102 % of control | dose: 100.0 mg/kg/injection, schedule: Q01DX009 (sc), vehicle: olive oil, sesame oil, peanut oil 104 % of control | dose: 100.0 mg/kg/injection, schedule: Q04DX003 (sc), vehicle: olive oil, sesame oil, peanut oil 102 % of control | dose: 200.0 mg/kg/injection, schedule: Q01DX001 (sc), vehicle: olive oil, sesame oil, peanut oil 102 % of control | dose: 200.0 mg/kg/injection, schedule: Q01DX009 (sc), vehicle: olive oil, sesame oil, peanut oil 116 % of control | dose: 200.0 mg/kg/injection, schedule: Q04DX003 (sc), vehicle: olive oil, sesame oil, peanut oil 103 % of control | dose: 400.0 mg/kg/injection, schedule: Q01DX001 (sc), vehicle: olive oil, sesame oil, peanut oil 98 % of control | dose: 400.0 mg/kg/injection, schedule: Q01DX009 (sc), vehicle: olive oil, sesame oil, peanut oil 104 % of control | dose: 400.0 mg/kg/injection, schedule: Q04DX003 (sc), vehicle: olive oil, sesame oil, peanut oil 100 % of control

Nc1ccc(OCc2ccccc2)cc1
inactive: [12] 96 % of control | dose: 50.0 mg/kg/injection, schedule: Q04DX003 (ip), vehicle: saline with Tween-80 100 % of control | [9] 87 % of control | [13] 103 % of control | [14] 109 % of control

C=CCNc1ccc([N+](=O)[O-])cc1[N+](=O)[O-]
inactive: dose: 100.0 mg/kg/injection, schedule: Q01DX001 (ip), vehicle: steriod suspending solution 91 % of control | dose: 200.0 mg/kg/injection, schedule: Q01DX001 (ip), vehicle: steriod suspending solution 98 % of control

O=C(NCCl)Nc1ccccc1
inactive: dose: 25.0 mg/kg/injection, schedule: Q04DX002 (ip), vehicle: saline 106 % of control | dose: 50.0 mg/kg/injection, schedule: Q04DX002 (ip), vehicle: saline 106 % of control | dose: 100.0 mg/kg/injection, schedule: Q04DX002 (ip), vehicle: saline + alcohol 100 % of control | dose: 100.0 mg/kg/injection, schedule: Q04DX002 (ip), vehicle: saline 100 % of control

CC(C)N=C(c1ccccc1)N(O)c1ccccc1
inactive: [1] 93 % of control | [2] 101 % of control | dose: 300.0 mg/kg/injection, schedule: Q01DX001 (ip), vehicle: saline 91 % of control

COC(=O)C1CN(C)CCC1=O (centres undefined)
inactive: [3] 97 % of control | [4] 106 % of control | [5] 95 % of control

O=C1N(Cl)C(=O)C(c2ccc(C(F)(F)F)cc2)(c2ccc(C(F)(F)F)cc2)N1Cl
inactive: [12] 88 % of control | [9] 100 % of control | [13] 102 % of control | [14] 100 % of control

O=C1CC(=O)N(Cc2ccccc2)C(=O)N1
inactive: dose: 100.0 mg/kg/injection, schedule: Q01DX001 (ip), vehicle: carboxymethylcellulose (CMC) 86 % of control | dose: 200.0 mg/kg/injection, schedule: Q01DX001 (ip), vehicle: carboxymethylcellulose (CMC) 95 % of control
